Reference: a melting point compilation (Tetko et al.; mined from patent text by program, amines drawn as free bases though some values may be those of a salt)

SMILES | melting point
Cc1ccc2noc(-c3ccccc3)c2c1 | 64 to 66 °C
CCOc1nc(NCc2ccco2)nc(Nc2ccc(OC)c(OC)c2)n1 | 100 to 102 °C
CC(C)(C)OC(=O)N=C(NCCCCNC(=O)[C@H](Cc1ccccc1)NC(=O)CCCC(=O)O)NC(=O)OC(C)(C)C | 86 °C
COc1cccc(C=O)c1OCc1cccc2ccccc12 | 98 to 99 °C
COC(=O)C(C)Oc1ccccc1S(N)(=O)=O (centres undefined) | 140 to 142 °C
Cc1nnc2ccc(-c3cccnc3)cn12 | 199 to 202 °C
COCCc1nc2c(N)nc3cc(Br)cnc3c2n1CC(C)(C)O | 210 to 211 °C
CC(C)c1ccc2c(c1)C(C(=O)O)c1ccccc1CO2 (centres undefined) | 161 to 162 °C
Cc1nnc2n1-c1sc(C(C)OC(=O)C=Cc3ccccc3)cc1C(c1ccccc1Cl)=NC2 (centres undefined) | 122 to 125 °C
CN1CC(CCN2CCN(c3ccccn3)CC2)c2nc3ccccc3n2C1=O (centres undefined) | 158 to 159 °C
Cc1c(Br)ccc2c1oc1ccccc12 | 124 to 125 °C
N#CC1CCCn2cccc21 (centres undefined) | 47 to 49 °C
CCOC(=O)C1=Cc2cc(Br)ccc2SC1 | 87 °C
c1ccc2sc3cc4oc5ccccc5sc4cc3oc2c1 | 223 °C
CCCCc1nc(CCO)c[nH]1 | 92 to 93 °C
COc1ccc(NC(=O)c2ccc([N+](=O)[O-])cc2)c(OC)c1 | 172 to 174 °C
COc1ccc(-c2nc(-c3ccccc3)nc(-c3ccccc3)n2)c(O)c1 | 211 to 212 °C
Cc1ncc(Cn2c(NC3CCNCC3)nc3ccccc32)o1 | 227 °C
COc1ccc(-c2nc(-c3cccs3)c[nH]2)cc1Cl | 82 to 85 °C
O=C(NCc1ccccn1)c1[nH]c2ccc(Cl)cc2c1S(=O)(=O)c1ccccc1 | 250 to 251 °C
O=C(NCCCCCCCNC(=O)c1ccc(OC(F)(F)C(F)Cl)cc1)c1ccc(OC(F)(F)C(F)Cl)cc1 (centres undefined) | 153 to 154 °C
Cc1cc2nc(N3CCC(=S)CC3)nc(N)c2cc1C | 187 to 188 °C
CCOC(=O)c1c(-c2ccccc2C)c2cc(Cl)ccc2n(C)c1=O | 113 to 114 °C
O=C(O)c1ccc(C=Cc2cc(=O)c3cc(Br)ccc3o2)cc1 | 359 to 362 °C
CCC(C)S(=O)(=O)c1cc(C(F)(F)F)ccc1C(=O)c1cnoc1C1CC1 (centres undefined) | 89 to 91 °C
O=P(O)(O)CNC1CCCCC1 | 279 to 284 °C

SMILES | melting point
NC(N)=Nc1nc(N2CCOCC2)nc2ccccc12 | 197 °C
CC(=O)c1c(N2CCCC2)nn2ccccc12 | 59.5 to 60 °C
O=C(C=Cc1cccnc1)NCCCCC1CCN(C(=O)N(c2ccccc2)c2ccccc2)CC1 | 132 to 134 °C
CC1CC(C(=O)O)CCN1C(=O)OC(C)(C)C (centres undefined) | 109 to 112 °C
COc1ccc2oc(Cc3cccc(C(F)(F)F)c3)c(CC#N)c2c1 | 116 °C
Cn1nc(Br)c(I)c1-c1ccc(F)cc1Cl | 139 to 141 °C
O=C(OCOC(=O)c1ccccc1)Oc1ccc([N+](=O)[O-])cc1 | 69 to 71 °C
COc1cc2c3cc(OC)c(OC)cc3n(S(=O)(=O)c3ccccc3)c2cc1OC | 212 to 213 °C
CC1(C)CC(=C(c2ccc(F)cc2)c2ccc(OCC#N)cc2)CC(C)(C)C1 | 100 to 101 °C
Cc1c(C(=O)N[C@@H](Cc2ccc(OCc3ccsc3)cc2)C(=O)O)oc2cc(-c3ccc(Cl)cc3)ccc12 | 111 to 113 °C
OC1CCN(c2nc(-c3ccccc3)cc(-c3ccc4c(c3)OCO4)n2)CC1 | 120 to 122 °C
Nc1cccc2c1CCCCC2 | 107 to 111 °C
Cc1ncc2cccc(CCCCCC(=O)O)n12 | 170 to 173 °C
O=CC1c2ccccc2CCc2ccccc21 | 76 to 77 °C
CCCCn1c(=O)n(C)c(=O)c2[nH]ncc21 | 160 to 162 °C
Cn1cnc(S(=O)(=O)Nc2cc(C(c3cc(F)ccc3F)S(=O)(=O)c3ccc(Cl)cc3)c(Cl)cn2)c1 (centres undefined) | 294 to 296 °C
C=CCC[Si](c1ccccc1)(c1ccccc1)C1SCCCS1 | 47 to 49 °C
Cc1c(Cl)sc2c1c(-c1ccccc1F)nc(=O)n2C | 175 to 176 °C
COC1=C(OC)C(=O)C(CCCCCC[C@H]2CC[C@H](O)CC2)=C(C)C1=O | 33.5 to 35.5 °C
Cc1oc(-c2ccccc2)nc1CN(C)C(=O)c1ccc(C=C2SC(=O)NC2=O)cc1 | 95 to 98 °C
CCOC(=O)NC(=O)n1sc(OCC)nc1=O | 119 °C
N#CCCCC1Sc2ccccc2NC1=O (centres undefined) | 107 to 108 °C
C=CCC1C(=NO)C2CCC1CC2 (centres undefined) | 124 to 125 °C
COc1ccc(Cc2cc(C3CCCN(C(=O)c4ccc5c(c4)OCO5)C3)nc(N)n2)cc1 (centres undefined) | 125 to 127 °C
O=C(Cl)c1cc(F)c(Cl)c([N+](=O)[O-])c1Cl | 35 to 37 °C
O[C@H]1CC[C@H](n2cnc(-c3ccc(F)cc3)c2-c2ccnc(Oc3ccccc3)n2)CC1 | 212 to 215 °C

SMILES | melting point
NC(=O)/C=C1\CCc2c(F)cc(Cl)cc21 | 171 to 173 °C
CCOC(=O)c1nc(O)sc1-c1ccncc1 | 204 to 206 °C
COC(=O)c1nn(CCN(C)C)c2nc3cc(OC)ccc3cc12 | 127 to 128 °C
CNC(=O)N1CCC(c2nn(-c3ccccc3)c3cc(F)ccc23)CC1 | 163 to 165 °C
O=C(CC1CCCCC1)Nc1c(Cl)ccc2nc(N3CC[C@H](NS(=O)(=O)C(F)(F)F)C3)ccc12 | 178 to 200 °C
COc1ccc2nc3c([N+](=O)[O-])ccc(Cl)c3c(Cl)c2c1 | 243 to 246 °C
CC(C)Cn1c(CNC(=O)OC(C)(C)C)c(-c2ccc(Cl)cc2)c2cc(C(N)=O)ccc2c1=O | 144 to 146 °C
Cn1c(=O)nc(-c2ccccc2F)c2c3c(sc21)CCCC3 | 221 to 222 °C
CC(C)(C(=O)O)c1ccc(CCNC(=O)c2ccc(Cl)cc2)cc1 | 234 to 235 °C
NS(=O)(=O)c1csc2cc(O)cnc12 | 245 to 247 °C
O=c1c2ccccc2[nH]c2ccc(O)c(Cl)c12 | 184 to 191 °C
NC(=O)NN=Cc1c(O)c(O)cc2ccccc12 | 210 to 215 °C
O=C(N1CCOCC1)n1nnc2cc(Cl)c(Cl)cc21 | 145 °C
CCOc1cccc(CC(=O)O)c1OCCn1cc(C(=O)NCc2ccc(Cl)cc2Cl)c(OC(C)C)n1 | 90 to 91 °C
Cc1csc(-c2cc(=O)n(C)c3ccc(C(O)(c4ccc(Cl)cc4)c4cncn4C)cc23)n1 (centres undefined) | 200 °C
Clc1nc(Cl)nc(Oc2ccccc2)n1 | 113 to 114 °C
CC(C)c1nc2c([nH]1)c(=S)[nH]c(=O)n2-c1cccc(Cl)c1 | 290 to 293 °C
O=C1CCCc2ccc(OCc3cccc(Cl)c3)cc21 | 77 to 78 °C
CCc1nc(C(C)(C)O)c(C(=O)OCc2oc(=O)oc2C)n1Cc1ccc(-c2ccccc2-c2nnnn2C(c2ccccc2)(c2ccccc2)c2ccccc2)cc1 | 145 °C
Cc1cc(N2CCNC(=O)N2)cc(Cl)c1SCc1ccc(Cl)cc1 | 165 to 167 °C
CC(C)Nc1c(NCc2ccccc2)cc(C(=O)O)cc1S(N)(=O)=O | 233 to 234 °C
COc1cc(C(=O)O)ccc1Cc1csc2ccc(NC(=O)OC3CCCC3)cc12 | 259 to 261 °C
CCN(CC)C(=O)C=Cc1ccccc1 | 65 °C
CC1(c2ccc3c(c2)C(c2ccccc2)=NCC(=C[N+](=O)[O-])N3)OCCO1 | 158 to 161 °C
CCCCC(=O)Nc1cccc(NC(=O)C=C(C)OC)c1 | 115 °C
NC(=O)N(O)Cc1cccs1 | 112 °C

SMILES | melting point
COc1cc(CN(C)CCCOc2ccc(NC(=O)c3cccc4c(=O)c5cccc(OC)c5[nH]c34)cc2)cc(OC)c1OC | 186 °C
O=C(O)Cc1cscc1Nc1c(Cl)cccc1Cl | 179 to 180 °C
Cc1oc(-c2ccccc2)nc1COc1cccc(CON=C(CCCCC(=O)O)c2ccccc2)c1 | 114 to 115 °C
N#Cc1cc(C(F)(F)F)[nH]c1-c1ccc(Cl)c(Cl)c1 | 230 to 232 °C
Cc1cc(SCc2ccccc2)ccn1 | 69 to 70 °C
CCOC1=CC2=CCC3C(CCC4(CC)C(=O)CC(OC(C)=O)C34)C2CC1 (centres undefined) | 189 °C
O=C(O)/C=C/c1cnoc1-c1ccccc1 | 197 to 199 °C
COc1ccc2cc([C@H](C)C(=O)OCC(=O)N(C)CC(=O)OCCO)ccc2c1 | 113 to 114 °C
O=C1CCCC(C(Sc2ccccc2)c2ccccc2)O1 (centres undefined) | 82 to 84 °C
CC(Oc1ccc(-c2ccc(Cl)cc2Cl)cc1)C(O)CCc1cccnc1 (centres undefined) | 98 to 100 °C
CC12CCC3C4CCC(OCc5ccccc5)CC4CCC3C1C=CC2=O (centres undefined) | 119 to 120 °C
COc1ccc(C2CCN(C)CC2)cc1Nc1ncc2ccc(-c3ccccc3OC)n2n1 | 64 to 69 °C
O=C(O)C1C(C=C(Cl)Cl)C12CCCC2 (centres undefined) | 90 to 105 °C
O=C(CCl)NN1CCOC(c2ccccc2)(c2ccccc2)CC1 | 150 to 152 °C
O=C(NCc1cc(C(F)(F)F)cc(C(F)(F)F)c1)c1oc(=O)c2ncccc2c1-c1ccccc1 | 129 to 130 °C
O=C(O)c1ccccc1NC(C(=O)O)c1ccc(Br)cc1 (centres undefined) | 216 °C
OCc1ccc2ncc(C(=S)NCc3ccc(Cl)cc3)c(O)c2c1 | 240 to 242 °C
CN(C)CCNC(=O)N1CCN(c2ccccc2)CC1 | 88 to 90 °C
CN1CCN(c2cccc3ccc(Nc4ccc([N+](=O)[O-])cc4[N+](=O)[O-])cc23)CC1 | 153 to 154 °C
COc1ccc2c(c1)C13CCN(C#N)C(C2)C1CC(C)C(=O)C3 (centres undefined) | 188 to 192 °C
CCOC(=O)c1sc(C)nc1Oc1cccc(C(F)(F)F)c1 | 56 °C
N#CCC(=O)OC(COc1ccc(C(=O)c2ccccc2)c(O)c1)COc1ccc(C(=O)c2ccccc2)c(O)c1 | 167 to 168 °C
O=c1cc(-c2ccccc2)oc2ccc(OCCCCCN3CCC(O)CC3)cc12 | 128 to 129 °C
Cc1[nH]n(C2CCC2)c2nc(-c3ccncc3)nc(=O)c1-2 | 289 to 290 °C
CCC(=O)C1=CCC(c2c(C)c(C)c3c(c2Cl)CC(C)(C)C3)CC1=O (centres undefined) | 74 to 75 °C
N#CCCn1c2ccccc2c2cc([N+](=O)[O-])ccc21 | 225 °C
